Measured values reported in ChEMBL document CHEMBL1921731, “Novel antileukemic agents derived from tamibarotene and nitric oxide donors” (Bioorg Med Chem Lett, 2011).

How the values were obtained:
[1] = tested on: NB-4; experiment: Antiproliferative activity against human NB4 cells after 48 hrs by MTT assay; format: functional, cell-based; settings: NB-4, 48 h
[2] = tested on: K562; experiment: Antiproliferative activity against human K562 cells after 48 hrs by MTT assay; format: functional, cell-based; settings: K562, 48 h
[3] = tested on: HL-60; experiment: Antiproliferative activity against human HL60 cells after 48 hrs by MTT assay; format: functional, cell-based; settings: HL-60, 48 h
[4] = Induction of NO release from L-cysteine in phosphate buffer at pH 7.4 at 0.4 mM after 3 hrs by Griess assay; format: physicochemical; settings: pH 7.4, 3 h, 400 µM
[5] = tested on: HL-60; experiment: Ratio of tamibarotene IC50 to compound IC50 for human HL60 cells; format: functional
[6] = tested on: K562; experiment: Ratio of tamibarotene IC50 to compound IC50 for human K562 cells; format: functional
[7] = tested on: NB-4; experiment: Ratio of tamibarotene IC50 to compound IC50 for human NB4 cells; format: functional

Q: Which results are given for CC1(C)CCC(C)(C)c2cc(NC(=O)c3ccc(C(=O)OCCOC(=O)c4ccc(OCc5c(-c6ccccc6)no[n+]5[O-])cc4)cc3)ccc21?
A: IC50 [1]: 119 µM; IC50 [2]: > 1000 µM; IC50 [3]: 395 µM; Activity [4]: Active

Q: For CC1(C)CCC(C)(C)c2cc(NC(=O)c3ccc(C(=O)O)cc3)ccc21 [TAMIBAROTENE], which IC50 [1] is on record?
A: 4.81 µM

Q: What about the IC50 [2] of the same molecule?
A: 42.4 µM

Q: What about the IC50 [3] of the same molecule?
A: 8.94 µM

Q: With CC1(C)CCC(C)(C)c2cc(NC(=O)c3ccc(C(=O)NCC(=O)OCc4c(-c5ccccc5)no[n+]4[O-])cc3)ccc21 as the molecule, how does the “Ratio IC50” value [5] read?
A: 56

Q: And the IC50 [1]?
A: 0.19 µM

Q: And the “Ratio IC50” value [6]?
A: 6

Q: What about the IC50 [2] of the same molecule?
A: 7.12 µM

Q: What about the IC50 [3] of the same molecule?
A: 0.16 µM

Q: And the Activity [4]?
A: Active

Q: And the “Ratio IC50” value [7]?
A: 25

Q: Which IC50 [1] does the source give for CC1(C)CCC(C)(C)c2cc(NC(=O)c3ccc(C(=O)NCCOC(=O)c4ccc(OCc5c(-c6ccccc6)no[n+]5[O-])cc4)cc3)ccc21 here?
A: 10.4 µM

Q: And the IC50 [2]?
A: > 1000 µM

Q: What about the IC50 [3] of the same molecule?
A: 12.3 µM

Q: What about the Activity [4] of the same molecule?
A: Active

Q: For CC1(C)CCC(C)(C)c2cc(NC(=O)c3ccc(C(=O)OCCCOC(=O)c4ccc(OCc5c(-c6ccccc6)no[n+]5[O-])cc4)cc3)ccc21, which IC50 [1] is on record?
A: 140 µM

Q: What about the IC50 [2] of the same molecule?
A: > 1000 µM

Q: And the IC50 [3]?
A: 185 µM

Q: What about the Activity [4] of the same molecule?
A: Active

Q: Which IC50 [1] does the source give for CC1(C)CCC(C)(C)c2cc(NC(=O)c3ccc(C(=O)OCCCCCCOC(=O)c4ccc(OCc5c(-c6ccccc6)no[n+]5[O-])cc4)cc3)ccc21 here?
A: > 1000 µM

Q: What about the IC50 [2] of the same molecule?
A: > 1000 µM

Q: What about the IC50 [3] of the same molecule?
A: 486 µM

Q: What about the Activity [4] of the same molecule?
A: Active

Q: What does the source list for CC1(C)CCC(C)(C)c2cc(NC(=O)c3ccc(C(=O)NCCNC(=O)c4ccc(OCc5c(-c6ccccc6)no[n+]5[O-])cc4)cc3)ccc21?
A: IC50 [1]: 1.93 µM; IC50 [2]: 13.3 µM; IC50 [3]: 1.14 µM; Activity [4]: Active

Q: What does the source list for CC1(C)CCC(C)(C)c2cc(NC(=O)c3ccc(C(=O)OCCCCOC(=O)c4ccc(OCc5c(-c6ccccc6)no[n+]5[O-])cc4)cc3)ccc21?
A: IC50 [1]: 952 µM; IC50 [2]: > 1000 µM; IC50 [3]: 651 µM; Activity [4]: Active

Q: With C[C@H](NC(=O)c1ccc(C(=O)Nc2ccc3c(c2)C(C)(C)CCC3(C)C)cc1)C(=O)OCc1c(-c2ccccc2)no[n+]1[O-] as the molecule, how does the IC50 [1] read?
A: 5.1 µM

Q: And the IC50 [2]?
A: 60.4 µM

Q: What about the IC50 [3] of the same molecule?
A: 6.97 µM

Q: And the Activity [4]?
A: Active

Q: Which IC50 [1] does the source give for CC1(C)CCC(C)(C)c2cc(NC(=O)c3ccc(C(=O)N[C@@H](Cc4ccccc4)C(=O)OCc4c(-c5ccccc5)no[n+]4[O-])cc3)ccc21 here?
A: 0.75 µM

Q: And the IC50 [2]?
A: 22.6 µM

Q: What about the IC50 [3] of the same molecule?
A: 0.5 µM

Q: What about the Activity [4] of the same molecule?
A: Active

Q: Which IC50 [1] does the source give for CC(C)C[C@H](NC(=O)c1ccc(C(=O)Nc2ccc3c(c2)C(C)(C)CCC3(C)C)cc1)C(=O)OCc1c(-c2ccccc2)no[n+]1[O-] here?
A: 0.97 µM

Q: And the IC50 [2]?
A: 64 µM

Q: What about the IC50 [3] of the same molecule?
A: 0.74 µM

Q: And the Activity [4]?
A: Active

Q: With CC(C)[C@H](NC(=O)c1ccc(C(=O)Nc2ccc3c(c2)C(C)(C)CCC3(C)C)cc1)C(=O)OCc1c(-c2ccccc2)no[n+]1[O-] as the molecule, how does the IC50 [1] read?
A: 4.39 µM

Q: And the IC50 [2]?
A: 192 µM

Q: What about the IC50 [3] of the same molecule?
A: 5.85 µM

Q: What about the Activity [4] of the same molecule?
A: Active

Q: For CC1(C)CCC(C)(C)c2cc(NC(=O)c3ccc(C(=O)OCCCCCOC(=O)c4ccc(OCc5c(-c6ccccc6)no[n+]5[O-])cc4)cc3)ccc21, which IC50 [1] is on record?
A: 240 µM

Q: And the IC50 [2]?
A: > 1000 µM

Q: And the IC50 [3]?
A: 282 µM

Q: And the Activity [4]?
A: Active
